Assay results as given in paper PMC11395219 (Molecular Cancer, 2024).
pKd: −log10 of the molar value.

Target: T1, Vitamin D receptor (VDR) (Homo sapiens, UniProt P11473)
T1 sequence (P11473 118-427 limits assumed): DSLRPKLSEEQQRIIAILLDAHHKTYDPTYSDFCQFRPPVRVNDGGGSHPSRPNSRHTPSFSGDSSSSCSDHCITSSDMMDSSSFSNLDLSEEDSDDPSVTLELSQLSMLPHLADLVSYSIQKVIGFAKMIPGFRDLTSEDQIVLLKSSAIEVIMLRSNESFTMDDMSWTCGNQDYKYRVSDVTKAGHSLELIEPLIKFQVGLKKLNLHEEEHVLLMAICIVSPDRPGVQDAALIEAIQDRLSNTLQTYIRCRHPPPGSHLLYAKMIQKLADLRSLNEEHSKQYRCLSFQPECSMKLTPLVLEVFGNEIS
Assay: SPR
Type: binding

## O=c1cc(-c2ccc(O)cc2)oc2c([C@@H]3O[C@H](CO)[C@@H](O)[C@H](O)[C@H]3O)c(O)cc(O)c12 [vitexin]
  pKd: 4.46
